Measurements taken from patent US20130225611A1, “Compositions and Methods for Reducing Cancer Cell Proliferation and Modulating Importin-Beta Function” (THE REGENTS OF THE UNIVERSITY OF CALIFORNIA, priority 2011, published 2013).

What was measured:
[1] = tested on: spindle assembly around sperm chromosomes; experiment: spindle assembly in metaphase-arrested Xenopus egg extracts; parameters: species or system Xenopus laevis; details: 100 μM importazole
Text: In order to determine whether importazole also disrupts mitosis, importazole was first tested in metaphase-arrested Xenopus egg extracts, which rely heavily on a RanGTP gradient for spindle assembly around sperm chromosomes. […] The effect was similar to that of adding a truncated importin-β (amino acids 71-876), a version that no longer binds to RanGTP and therefore sequesters its cargoes. […] Thus, importazole caused dramatic effects on spindle assembly consistent with the known role of the importin-β/RanGTP pathway in the Xenopus egg extract system, and is not a general microtubule inhibitor.
(§1) Xenopus laevis egg extracts were prepared as described by Hannak et al. (2006) Nat. Protoc. 1:2305-2314. For in vitro spindle assembly, Xenopus laevis sperm DNA was added to egg extracts supplemented with rhodamine-labeled tubulin. Asters were formed by addition of 5% DMSO. DNA was stained with Hoechst dye. The formation of microtubule-based structures was assessed using epifluorescence microscopy after a 30-minute room temperature incubation. In vitro microtubule polymerization and pelleting assays were performed by incubating 25 μM bovine tubulin, 1 mM GTP, and 5% DMSO in BRB80 buffer (80 mM PIPES, 1 mM MgCl2, 1 mM EGTA, pH 6.8) at 37° C. for 30 minutes. Polymerized microtubules were pelleted through a sucrose cushion, resuspended, and analyzed by SDS PAGE.

[2] = target: T1, interaction between RanGTP and importin-β (Homo sapiens, UniProt Q14974); experiment: CFP-Ran/YFP-importin-β FRET assay; assay type: binding; details: spectrofluorimeter retest
T1 construct: made in house; host or cells: BL21 cells (E. coli)
Experimental: A reverse chemical genetic high-throughput screen (HTS) was performed to identify compounds that affect the interaction between RanGTP and importin-β using a fluorescence resonance energy transfer (FRET)-based assay with cyan fluorescent protein (CFP)-tagged Ran and yellow fluorescent protein (YFP)-tagged importin-β. These proteins bind one another only when CFP-Ran is guanosine triphosphate (GTP)-bound, which can be detected by changes in FRET (FIG. 1A and FIG. 1B). When CFP-Ran is incubated with RCC1, GTP, and YFP-importin-β, and the mixture is excited with 435 nm fluorescence in a fluorometer, a strong FRET signal is generated, as indicated by a decrease in the fluorescence intensity at 475 nm (the emission wavelength of CFP) and an increase in the fluorescence intensity at 525 nm (the emission wavelength of YFP). No FRET signal is generated if GDP is substituted for GTP, and nucleotide-specific interaction could also be observed biochemically, as S-tagged YFP-importin-β pulls CFP-Ran out of solution only in the presence of GTP. […]
The following reaction buffer was used for all FRET assays, including the high-throughput screen: 1× phosphate buffered saline (PBS), 5% glycerol, 2 mM MgCl2, 1 mM dithiothreitol (DTT), 0.01% NP-40. […] The reaction was excited using a Fluorolog 3 spectrofluorometer with 435 nm fluorescence and the emission was read between 460 nm and 550 nm. […]

[3] = tested on: importin-β-mediated nuclear import; experiment: ionomycin-induced NFAT-GFP nuclear import in HEK 293 cells; assay type: cell-based, human
Text: To investigate whether importazole is cell permeable and active in living human cells, a cell line was generated that stably expresses a GFP-tagged version of the transcription factor NFAT (nuclear factor of activated T cells), which shuttles between the nucleus and the cytoplasm in a calcium-regulated manner and is imported by importin-α/β and exported by CRM1. At steady state NFAT is predominantly cytoplasmic. An increase in cytoplasmic calcium induced by the ionophore ionomycin leads to the accumulation of NFAT in the nucleus (FIG. 4A). NFAT import can be reverted upon ionophore withdrawal, (FIG. 5A) providing an inducible system ideal for testing the effects of importazole on importin-β-mediated nuclear import and CRM1-mediated nuclear export, both of which are dependent upon RanGTP.
Cells were pretreated with 40 μM importazole for 1 hour followed by 30 minutes of ionomycin treatment in the continued presence of importazole. […] Thus, it is possible to use importazole in drug-washout experiments to study the Ran/importin-β pathway in cells.
A GFP-NFAT expression plasmid (pKW520) was generated by inserting a BamH I/Hind III-cleaved NFATC1 cDNA fragment into pEGFP-C1 (Clontech) digested with Bgl II and Hind III. The construct was stably transfected into HEK 293 cells and a single clone expressing moderate levels of NFAT-GFP was selected and maintained in Opti-mem media (Gibco) plus 4% fetal bovine serum, 1% penicillin/streptomycin, and 200 μg/ml G418. HeLa cells were grown and maintained according to standard protocols.
For all import and export experiments, HEK 293 cells stably expressing NFAT-GFP were grown on glass coverslips to approximately 50% confluency prior to drug treatment. In all cases, importazole was used at 40 μM and leptomycin B was used at 10 ng/ml. For controls, DMSO was used at a concentration of 0.4%. Ionomycin was added at 1.25 μM. Importazole and leptomycin B treatments were all for 1 hour. In all experiments cells were fixed with 4% formaldehyde prior to fluorescence microscopy. DNA was visualized with 1 μg/ml Hoechst dye.

microtubule asters = experiment: DMSO-induced aster assembly in Xenopus egg extracts; parameters: species or system Xenopus laevis; details: 5% DMSO
Experimental: as §1

- effect on FRET signal generated by CFP-Ran and YFP-importin-β [2]: reproducibly disrupted the FRET signal
- IC50 ([3]; Homo sapiens, HEK293, HEK 293 cells stably expressing NFAT-GFP, read-out: IC50 for inhibition of NFAT-GFP import): ~15 µM
Structure (SMILES): CC(Nc1nc(N2CCCC2)nc2ccccc12)c1ccccc1 (stereo not drawn) [importazole, (1-phenyl-ethyl)-(2-pyrrolidin-1-yl-quinazolin-4-yl)-amine]
- sperm nuclei at which normal bipolar microtubule structures were prevented from forming [1]: 80%
- nuclear accumulation of NFAT-GFP after ionomycin addition ([3]; HEK 293, 40 μM, 1 hour pretreatment then 30 minutes ionomycin): virtually no import of NFAT-GFP
- reversibility of NFAT-GFP import inhibition ([3]; washout, 1 hour recovery before ionomycin): reversible upon importazole washout
- formation of microtubule asters induced by DMSO in the extract (microtubule asters): did not impair the formation of microtubule asters
